Experimental data as given in the NIST ThermoML archive (doi:10.1021/je700029q).
Values joined by “and” are separate entries in the source; they are usually repeats but may differ in a detail not shown here. Equal values may be shown once.

Tests used:
[1] = refractive index (Na D-line) (dimensionless); settings: 298.15 K; 101.33 kPa; Liquid
[2] = 101 kPa, Liquid
[3] = refractive index (Na D-line) (dimensionless); xn = mol fraction of the nth substance listed; settings: 298.15 K, 101 kPa, Liquid
[4] = xn = mol fraction of the nth substance listed; settings: 101 kPa, Liquid

CCOS(=O)(=O)[O-].CCn1cc[n+](C)c1 [1-ethyl-3-methylimidazolium ethyl sulfate]
Settings | refractive index
[1] | 1.4794

[2]
Settings | mass density [kg/m3] | speed of sound | viscosity [mPa·s]
298.15 K | 1237.6 | 1679 m/s | 97.58
313.15 K | 1227.5 | 1641 m/s and 1642 m/s and 1643 m/s | 50.01
328.15 K | 1217.5 | 1605 m/s | 29.18

CCOS(=O)(=O)[O-].CCn1cc[n+](C)c1 [1-ethyl-3-methylimidazolium ethyl sulfate] + CO
[3]
Settings | refractive index
x2 = 0 | 1.4794
x2 = 0.1346 | 1.47491
x2 = 0.2595 | 1.47006
x2 = 0.3267 | 1.46675
x2 = 0.4741 | 1.45742
x2 = 0.5701 | 1.44913
x2 = 0.6664 | 1.43808
x2 = 0.7757 | 1.42043
x2 = 0.8294 | 1.4078
x2 = 0.923 | 1.37377
x2 = 0.9626 | 1.35299
x2 = 0.9917 | 1.33319

[4]
Settings | mass density, 298.15 K [kg/m3] | mass density, 313.15 K [kg/m3] | mass density, 328.15 K [kg/m3] | speed of sound, 298.15 K [m/s] | speed of sound, 313.15 K [m/s] | speed of sound, 328.15 K [m/s] | viscosity, 298.15 K [mPa·s] | viscosity, 313.15 K [mPa·s] | viscosity, 328.15 K [mPa·s]
x2 = 0 | 1237.6 | 1227.5 | 1217.5 | 1679 | 1641 | 1605 | 97.58 | 50.01 | 29.18
x2 = 0.1346 | 1224.2 | 1214.1 | 1204 | 1663 | 1627 | 1588 | 60.93 | 33.83 | 20.92
x2 = 0.2595 | 1209.1 | 1199 | 1188.6 | 1640 | 1603 | 1564 | 39.32 | 23.4 | 15.25
x2 = 0.3267 | 1199.4 | 1189.1 | 1178.8 | 1624 | 1587 | 1549 | 30.59 | 18.94 | 12.65
x2 = 0.4741 | 1171.9 | 1161.3 | 1150.7 | 1583 | 1546 | 1506 | 16.38 | 11.02 | 7.887
x2 = 0.5701 | 1146.8 | 1135.9 | 1125.1 | 1547 | 1509 | 1469 | 10.12 | 7.173 | 5.387
x2 = 0.6664 | 1113.9 | 1102.9 | 1091.8 | 1500 | 1461 | 1420 | 6.45 | 4.776 | 3.661
x2 = 0.7757 | 1059 | 1047.5 | 1035.9 | 1423 | 1382 | 1340 | 3.232 | 2.508 | 2.02
x2 = 0.8294 | 1021.1 | 1009.2 | 997.3 | 1371 | 1330 | 1287 | 2.351 | 1.86 | 1.501
x2 = 0.923 | 924.9 | 912.2 | 899.3 | 1251 | 1207 | 1162 | 1.639 | 0.901 | 0.666
x2 = 0.9626 | 863.7 | 850.4 | 836.9 | 1187 | 1137 | 1090 | 1.263 | 0.66 | 0.551
x2 = 0.9917 | 806 | 792.2 | 777.7 | 1123 | 1076 | 1029 | 1.039 | 0.516 | 0.43

CO [methanol]
Settings | refractive index
[1] | 1.32687

[2]
Settings | mass density [kg/m3] | speed of sound [m/s] | viscosity [mPa·s]
298.15 K | 786.4 | 1103 | 0.546
313.15 K | 772.3 | 1055 | 0.446
328.15 K | 757.8 | 1006 | 0.369

CO [methanol] + CCOS(=O)(=O)[O-].CCn1cc[n+](C)c1
Settings | refractive index
[3], x1 = 1 | 1.32687

[4], x1 = 1
Settings | mass density [kg/m3] | speed of sound [m/s] | viscosity [mPa·s]
298.15 K | 786.4 | 1103 | 0.546
313.15 K | 772.3 | 1055 | 0.446
328.15 K | 757.8 | 1006 | 0.369

CCCO [propan-1-ol]
Settings | refractive index
[1] | 1.3831

[2]
Settings | mass density [kg/m3] | speed of sound [m/s] | viscosity [mPa·s]
298.15 K | 799.6 | 1207 | 2.017
313.15 K | 787.4 | 1155 | 1.43
328.15 K | 774.8 | 1105 | 1.041

CCCO [propan-1-ol] + CCOS(=O)(=O)[O-].CCn1cc[n+](C)c1
Settings | refractive index
[3], x1 = 1 | 1.3831

[4], x1 = 1
Settings | mass density [kg/m3] | speed of sound [m/s] | viscosity [mPa·s]
298.15 K | 799.6 | 1207 | 2.017
313.15 K | 787.4 | 1155 | 1.43
328.15 K | 774.8 | 1105 | 1.041

CC(C)O [propan-2-ol]
Settings | refractive index
[1] | 1.37495

[2]
Settings | mass density [kg/m3] | speed of sound [m/s] | viscosity [mPa·s]
298.15 K | 780.7 | 1138 | 2.082
313.15 K | 767.8 | 1085 | 1.354
328.15 K | 753.9 | 1031 | 0.919

CC(C)O [propan-2-ol] + CCOS(=O)(=O)[O-].CCn1cc[n+](C)c1
Settings | refractive index
[3], x1 = 1 | 1.37495

[4], x1 = 1
Settings | mass density [kg/m3] | speed of sound [m/s] | viscosity [mPa·s]
298.15 K | 780.7 | 1138 | 2.082
313.15 K | 767.8 | 1085 | 1.354
328.15 K | 753.9 | 1031 | 0.919
